Assay results reported in patent US8802849B2, “Tricyclic benzo[4,5]thieno-[2,3-d]pyrimidine-4-yl-amin derivatives, their salts, process for producing the compounds and their pharmaceutical use” (Vichem Chemie Kutató Kft., priority 2008, dated 2014).

What was measured:
Jnk1a1 = Jnk1a1 (Homo sapiens, UniProt P45983); assay: Jnk1a1 kinase assay; assay type: biochemical; details: 10 μM compound; read-out: Jnk1a1 percent of inhibition
Description: (§1) General description of the kinase assays: the kinase activity was assayed in 96-well microtiter plates at a final compound concentration of 10 μM in a total volume of 50 μl. Compounds were dissolved in 100% DMSO to prepare a 10 mM stock solution and than diluted with buffer to reach a 10 μM (or the required) final concentration. The kinase concentration was used to yield 10% ATP turn over. The ATP concentration was used at the KmATP and 12.5 μCi/ml adenosine 5′[γ-33P]triphosphate. The substrate concentration was used at 5 fold excess over the Km for the substrate. The reaction was incubated for 1 hour at room temperature and stopped by addition of 10 μl 50 mM EDTA. The assay was transferred to a 96 well MAPH filter plate (Millipore). The radioactivity was counted on a Microbeta microplate counter.

cMet = cMet (Homo sapiens, UniProt P08581); assay: cMet kinase assay; assay type: biochemical; details: 10 μM compound; read-out: cMet percent of inhibition
Description: as §1

PDGFR-beta = PDGFR-beta (Homo sapiens, UniProt P09619); assay: PDGFR-beta kinase assay; assay type: biochemical; details: 10 μM compound; read-out: PDGFR-beta percent of inhibition
Description: as §1

EGFR = EGFR (Homo sapiens, UniProt P00533); assay: EGFR kinase assay (33P-ATP filter plate); assay type: biochemical; details: 10 μM compound; read-out: EGFR percent of inhibition
Description: as §1

AKT1/PKBa = AKT1/PKBa (Homo sapiens, UniProt P31749); assay: AKT1/PKBa kinase assay; assay type: biochemical; details: 10 μM compound; read-out: AKT1/PKBa percent of inhibition
Description: as §1

Kit = Kit (Homo sapiens, UniProt P10721); assay: Kit kinase assay; assay type: biochemical; details: 10 μM compound; read-out: Kit percent of inhibition
Sequence of Kit (P10721 26-976, species assumed): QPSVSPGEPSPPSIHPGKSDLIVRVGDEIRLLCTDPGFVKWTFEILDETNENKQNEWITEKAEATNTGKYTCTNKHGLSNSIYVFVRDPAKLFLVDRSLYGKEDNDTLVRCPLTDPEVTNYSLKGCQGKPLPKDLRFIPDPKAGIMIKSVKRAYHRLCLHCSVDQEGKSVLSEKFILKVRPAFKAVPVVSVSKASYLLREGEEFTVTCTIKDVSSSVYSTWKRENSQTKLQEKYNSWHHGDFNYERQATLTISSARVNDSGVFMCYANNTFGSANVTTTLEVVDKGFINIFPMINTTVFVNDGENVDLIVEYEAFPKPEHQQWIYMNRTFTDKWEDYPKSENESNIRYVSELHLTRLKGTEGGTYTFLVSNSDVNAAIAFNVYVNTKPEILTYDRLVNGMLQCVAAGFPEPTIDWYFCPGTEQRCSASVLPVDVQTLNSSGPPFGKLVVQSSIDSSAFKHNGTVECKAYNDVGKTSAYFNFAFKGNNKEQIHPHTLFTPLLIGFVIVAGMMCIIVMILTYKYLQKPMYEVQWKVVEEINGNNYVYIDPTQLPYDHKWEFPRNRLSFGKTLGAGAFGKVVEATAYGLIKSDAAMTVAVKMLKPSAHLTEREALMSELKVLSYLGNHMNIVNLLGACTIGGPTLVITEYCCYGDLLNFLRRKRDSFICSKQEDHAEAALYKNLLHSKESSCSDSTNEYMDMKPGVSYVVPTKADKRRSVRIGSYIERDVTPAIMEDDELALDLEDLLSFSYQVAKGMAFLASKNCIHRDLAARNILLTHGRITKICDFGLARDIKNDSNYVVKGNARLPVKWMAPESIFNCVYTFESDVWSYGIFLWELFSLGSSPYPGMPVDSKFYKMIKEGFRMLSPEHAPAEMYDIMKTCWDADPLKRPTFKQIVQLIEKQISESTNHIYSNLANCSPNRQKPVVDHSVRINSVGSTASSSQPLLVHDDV
Description: as §1

RSK1 = RSK1 (Homo sapiens, UniProt Q15418); assay: RSK1 kinase assay; assay type: biochemical; details: 10 μM compound; read-out: RSK1 percent of inhibition
Description: as §1

IKK-beta = molecular target: T1, IKK-beta (Homo sapiens, UniProt O14920); assay: IKK-beta kinase assay; assay type: biochemical; details: 10 μM compound; read-out: IKK-beta percent of inhibition
T1 sequence (O14920 1-756): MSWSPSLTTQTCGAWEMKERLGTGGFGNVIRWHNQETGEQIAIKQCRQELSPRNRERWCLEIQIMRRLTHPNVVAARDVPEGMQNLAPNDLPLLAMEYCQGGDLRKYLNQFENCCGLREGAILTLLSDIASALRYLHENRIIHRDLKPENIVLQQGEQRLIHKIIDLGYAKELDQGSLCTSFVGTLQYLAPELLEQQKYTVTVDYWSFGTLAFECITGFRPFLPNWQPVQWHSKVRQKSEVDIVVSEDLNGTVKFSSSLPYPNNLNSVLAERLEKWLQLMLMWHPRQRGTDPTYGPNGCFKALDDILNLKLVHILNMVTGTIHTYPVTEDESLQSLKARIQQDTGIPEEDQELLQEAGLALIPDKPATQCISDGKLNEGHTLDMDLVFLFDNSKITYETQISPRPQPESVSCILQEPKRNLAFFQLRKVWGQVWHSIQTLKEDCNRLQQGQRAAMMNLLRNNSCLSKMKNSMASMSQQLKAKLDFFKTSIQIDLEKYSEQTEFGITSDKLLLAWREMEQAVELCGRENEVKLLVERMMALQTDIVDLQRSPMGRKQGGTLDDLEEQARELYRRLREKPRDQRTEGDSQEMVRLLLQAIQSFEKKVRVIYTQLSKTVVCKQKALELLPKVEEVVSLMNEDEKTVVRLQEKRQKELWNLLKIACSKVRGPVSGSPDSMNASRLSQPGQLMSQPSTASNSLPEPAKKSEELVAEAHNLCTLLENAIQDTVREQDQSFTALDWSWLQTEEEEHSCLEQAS
Description: as §1

MAPK-ERK1 = MAPK-ERK1 (Homo sapiens, UniProt P27361); assay: MAPK-ERK1 kinase assay; assay type: biochemical; details: 10 μM compound; read-out: MAPK-ERK1 percent of inhibition
Description: as §1

P56Lck = P56Lck (Homo sapiens, UniProt P06239); assay: P56Lck kinase assay; assay type: biochemical; details: 10 μM compound; read-out: P56Lck percent of inhibition
Sequence of P56Lck (P06239 whole entry, species assumed): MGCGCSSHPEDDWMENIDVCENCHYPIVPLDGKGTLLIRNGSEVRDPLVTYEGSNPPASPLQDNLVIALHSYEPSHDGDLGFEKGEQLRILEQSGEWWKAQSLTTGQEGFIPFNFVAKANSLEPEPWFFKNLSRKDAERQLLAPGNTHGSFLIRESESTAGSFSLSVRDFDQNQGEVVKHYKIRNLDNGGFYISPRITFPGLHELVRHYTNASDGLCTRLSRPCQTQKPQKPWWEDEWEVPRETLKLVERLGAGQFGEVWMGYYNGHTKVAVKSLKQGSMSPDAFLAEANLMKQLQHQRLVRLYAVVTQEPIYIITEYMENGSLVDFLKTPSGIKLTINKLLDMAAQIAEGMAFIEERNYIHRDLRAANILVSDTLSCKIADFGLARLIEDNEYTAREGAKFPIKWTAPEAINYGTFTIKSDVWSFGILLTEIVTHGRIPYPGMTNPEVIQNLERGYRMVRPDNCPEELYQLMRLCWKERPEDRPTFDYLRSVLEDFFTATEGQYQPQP
Description: as §1

P70S6K = P70S6K (Homo sapiens, UniProt P23443); assay: P70S6K kinase assay; assay type: biochemical; details: 10 μM compound; read-out: P70S6K percent of inhibition
Description: as §1

c-Src = c-Src (Homo sapiens, UniProt P12931); assay: c-Src kinase assay; assay type: biochemical; details: 10 μM compound; read-out: c-Src percent of inhibition
Description: as §1

c-Raf = c-Raf (Homo sapiens, UniProt P04049); assay: c-Raf kinase assay; assay type: biochemical; details: 10 μM compound; read-out: c-Raf percent of inhibition
Description: as §1

ROCK2 = ROCK2 (Homo sapiens, UniProt O75116); assay: ROCK2 kinase assay; assay type: biochemical; details: 10 μM compound; read-out: ROCK2 percent of inhibition
Sequence of ROCK2 (O75116 whole entry, species assumed): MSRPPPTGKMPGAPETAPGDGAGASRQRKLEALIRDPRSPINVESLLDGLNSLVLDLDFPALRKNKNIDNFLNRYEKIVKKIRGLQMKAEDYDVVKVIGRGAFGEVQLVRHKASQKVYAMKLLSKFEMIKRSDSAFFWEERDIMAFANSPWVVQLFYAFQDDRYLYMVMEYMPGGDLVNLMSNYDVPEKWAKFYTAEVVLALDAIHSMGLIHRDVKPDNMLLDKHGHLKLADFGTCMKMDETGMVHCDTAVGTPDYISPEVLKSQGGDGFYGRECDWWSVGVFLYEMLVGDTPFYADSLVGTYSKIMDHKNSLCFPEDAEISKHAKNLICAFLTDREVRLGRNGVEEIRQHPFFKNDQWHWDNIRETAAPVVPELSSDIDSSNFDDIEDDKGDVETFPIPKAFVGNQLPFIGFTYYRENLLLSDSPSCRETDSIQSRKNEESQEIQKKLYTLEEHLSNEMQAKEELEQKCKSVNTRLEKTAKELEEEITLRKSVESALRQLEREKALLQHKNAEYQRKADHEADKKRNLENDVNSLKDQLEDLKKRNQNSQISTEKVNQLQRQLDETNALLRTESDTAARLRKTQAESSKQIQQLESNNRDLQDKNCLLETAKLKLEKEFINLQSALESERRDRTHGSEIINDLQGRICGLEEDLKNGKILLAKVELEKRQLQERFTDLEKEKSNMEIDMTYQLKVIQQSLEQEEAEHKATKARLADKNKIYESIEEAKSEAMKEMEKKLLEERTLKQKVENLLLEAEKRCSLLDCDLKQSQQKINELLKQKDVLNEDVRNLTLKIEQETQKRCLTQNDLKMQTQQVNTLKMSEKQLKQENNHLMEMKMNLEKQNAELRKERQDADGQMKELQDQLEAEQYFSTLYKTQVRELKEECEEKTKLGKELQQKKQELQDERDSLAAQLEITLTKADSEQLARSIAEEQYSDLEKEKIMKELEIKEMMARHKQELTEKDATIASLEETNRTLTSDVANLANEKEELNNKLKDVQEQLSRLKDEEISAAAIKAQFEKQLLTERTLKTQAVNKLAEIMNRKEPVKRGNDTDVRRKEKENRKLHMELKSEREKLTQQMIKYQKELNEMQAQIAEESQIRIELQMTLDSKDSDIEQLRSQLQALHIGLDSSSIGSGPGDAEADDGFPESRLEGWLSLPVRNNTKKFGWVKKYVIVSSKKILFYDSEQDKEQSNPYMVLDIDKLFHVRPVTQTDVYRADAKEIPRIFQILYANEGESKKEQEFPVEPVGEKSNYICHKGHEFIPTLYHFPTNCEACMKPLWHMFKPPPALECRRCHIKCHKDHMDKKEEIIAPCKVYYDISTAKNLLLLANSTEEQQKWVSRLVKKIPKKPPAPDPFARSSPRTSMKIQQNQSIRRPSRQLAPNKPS
Description: as §1

CDK2/CycA = CDK2/CycA (Homo sapiens, UniProt P24941); assay: CDK2/CycA kinase assay; assay type: biochemical; details: 10 μM compound; read-out: CDK2/CycA percent of inhibition
Description: as §1

CK1-alpha = CK1-alpha (Homo sapiens, UniProt P48729); assay: CK1-alpha kinase assay; assay type: biochemical; details: 10 μM compound; read-out: CK1-alpha percent of inhibition
Sequence of CK1-alpha (P48729 whole entry): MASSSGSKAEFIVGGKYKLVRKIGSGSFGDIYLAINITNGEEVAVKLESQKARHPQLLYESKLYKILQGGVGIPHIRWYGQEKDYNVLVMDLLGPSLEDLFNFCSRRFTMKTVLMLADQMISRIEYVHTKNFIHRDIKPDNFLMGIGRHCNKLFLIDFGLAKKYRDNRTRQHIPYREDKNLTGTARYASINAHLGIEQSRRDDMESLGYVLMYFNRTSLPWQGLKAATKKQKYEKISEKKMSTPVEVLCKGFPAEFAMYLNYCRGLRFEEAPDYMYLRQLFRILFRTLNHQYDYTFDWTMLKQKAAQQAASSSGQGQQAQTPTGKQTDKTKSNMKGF
Description: as §1

GSK-3beta = GSK-3beta (Homo sapiens, UniProt P49841); assay: GSK-3beta kinase assay; assay type: biochemical; details: 10 μM compound; read-out: GSK-3beta percent of inhibition
Description: as §1

SRPK1 = SRPK1 (Homo sapiens, UniProt Q96SB4); assay: SRPK1 kinase assay; assay type: biochemical; details: 10 μM compound; read-out: SRPK1 percent of inhibition
Description: as §1

InsR = InsR (Homo sapiens, UniProt P06213); assay: InsR kinase assay; assay type: biochemical; details: 10 μM compound; read-out: InsR percent of inhibition
Sequence of InsR (P06213 28-1382, species assumed): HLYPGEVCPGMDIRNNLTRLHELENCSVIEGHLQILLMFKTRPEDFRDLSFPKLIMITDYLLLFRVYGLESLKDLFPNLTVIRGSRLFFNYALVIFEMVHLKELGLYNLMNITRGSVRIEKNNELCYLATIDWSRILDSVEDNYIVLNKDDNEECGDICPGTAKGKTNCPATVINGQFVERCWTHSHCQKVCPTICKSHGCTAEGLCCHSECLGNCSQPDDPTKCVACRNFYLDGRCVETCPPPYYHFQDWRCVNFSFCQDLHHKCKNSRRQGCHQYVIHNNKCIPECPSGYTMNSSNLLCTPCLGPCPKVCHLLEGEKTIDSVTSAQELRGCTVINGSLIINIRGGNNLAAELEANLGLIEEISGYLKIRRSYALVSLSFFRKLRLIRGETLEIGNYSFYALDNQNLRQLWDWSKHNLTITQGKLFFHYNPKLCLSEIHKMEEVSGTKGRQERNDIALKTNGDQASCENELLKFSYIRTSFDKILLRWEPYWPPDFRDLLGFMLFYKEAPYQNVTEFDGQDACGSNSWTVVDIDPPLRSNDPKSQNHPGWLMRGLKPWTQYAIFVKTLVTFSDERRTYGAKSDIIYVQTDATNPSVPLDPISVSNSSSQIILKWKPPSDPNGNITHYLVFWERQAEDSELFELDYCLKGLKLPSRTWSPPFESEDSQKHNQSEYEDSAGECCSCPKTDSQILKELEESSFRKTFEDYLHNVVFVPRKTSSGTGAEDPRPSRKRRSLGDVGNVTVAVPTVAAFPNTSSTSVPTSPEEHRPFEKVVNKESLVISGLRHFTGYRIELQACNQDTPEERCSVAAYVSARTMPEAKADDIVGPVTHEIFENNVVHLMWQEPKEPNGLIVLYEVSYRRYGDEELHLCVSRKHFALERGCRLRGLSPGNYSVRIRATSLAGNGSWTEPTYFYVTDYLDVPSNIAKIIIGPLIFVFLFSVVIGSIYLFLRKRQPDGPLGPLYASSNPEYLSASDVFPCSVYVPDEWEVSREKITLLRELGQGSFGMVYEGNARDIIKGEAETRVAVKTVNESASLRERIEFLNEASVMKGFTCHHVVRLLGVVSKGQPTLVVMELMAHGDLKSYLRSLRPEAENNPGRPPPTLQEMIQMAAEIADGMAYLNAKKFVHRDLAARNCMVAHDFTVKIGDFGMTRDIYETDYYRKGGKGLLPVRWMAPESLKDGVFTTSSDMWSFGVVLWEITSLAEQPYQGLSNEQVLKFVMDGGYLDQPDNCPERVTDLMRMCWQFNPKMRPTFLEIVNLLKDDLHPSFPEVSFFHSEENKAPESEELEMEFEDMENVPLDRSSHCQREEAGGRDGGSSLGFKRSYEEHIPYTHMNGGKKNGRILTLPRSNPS
Description: as §1

Abl = Abl (Homo sapiens, UniProt P00519); assay: Abl kinase assay; assay type: biochemical; details: 10 μM compound; read-out: Abl percent of inhibition
Description: as §1

Sequence of Jnk1a1 (P45983 1-384 isoform P45983-2): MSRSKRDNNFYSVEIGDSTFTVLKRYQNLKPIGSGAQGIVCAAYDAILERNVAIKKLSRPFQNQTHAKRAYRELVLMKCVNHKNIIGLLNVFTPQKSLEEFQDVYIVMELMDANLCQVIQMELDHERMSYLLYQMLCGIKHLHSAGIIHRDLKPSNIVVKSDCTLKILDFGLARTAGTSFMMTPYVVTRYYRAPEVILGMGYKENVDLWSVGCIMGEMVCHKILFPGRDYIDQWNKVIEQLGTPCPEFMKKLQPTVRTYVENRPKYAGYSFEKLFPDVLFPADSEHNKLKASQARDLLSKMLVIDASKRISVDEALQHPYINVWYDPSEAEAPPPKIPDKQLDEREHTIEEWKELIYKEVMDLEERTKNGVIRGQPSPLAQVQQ

Row | SMILES | inhibition at 10 µM (Jnk1a1) | inhibition at 10 µM (cMet) | inhibition at 10 µM (PDGFR-beta) | inhibition at 10 µM (EGFR) | inhibition at 10 µM (AKT1/PKBa) | inhibition at 10 µM (Kit) | inhibition at 10 µM (RSK1) | inhibition at 10 µM (IKK-beta) | inhibition at 10 µM (MAPK-ERK1) | inhibition at 10 µM (P56Lck) | inhibition at 10 µM (P70S6K) | inhibition at 10 µM (c-Src) | inhibition at 10 µM (c-Raf) | inhibition at 10 µM (ROCK2) | inhibition at 10 µM (CDK2/CycA) | inhibition at 10 µM (CK1-alpha) | inhibition at 10 µM (GSK-3beta) | inhibition at 10 µM (SRPK1) | inhibition at 10 µM (InsR) | melting point | also measured
1 | Clc1cccc(Nc2nc(C3CC3)nc3sc4c(c23)CCCC4)c1 [Compound 9, (3-Chloro-phenyl)-(2-cyclopropyl-5,6,7,8-tetrahydro-benzo[4,5]thieno[2,3-d]pyrimidin-4-yl)-amine] | -6% | -14% | -2% | 66% | -10% | -6% | 2% | -2% | 2% | 0% | 0% | 3% | -6% | 5% | -10% | -3% | -6% | 7% | 3% | 208.6 °C | inhibition at 10 µM (Abl): -20%
2 | Oc1cccc(Nc2nc(C3CC3)nc3sc4c(c23)CCCC4)c1 [Compound 10, 3-(2-Cyclopropyl-5,6,7,8-tetrahydro-benzo[4,5]thieno[2,3-d]pyrimidin-4-ylamino)-Phenol] | -12% | 3% | -5% | 23% | 0% | -12% | -12% | 10% | 9% | 3% | 6% | 3% | -3% | 6% | -11% | 4% | -8% | 18% | 2% | 239.7 °C | inhibition at 10 µM (Abl): -2%
3 | FC(F)(F)c1cccc(Nc2nc(C3CC3)nc3sc4c(c23)CCCC4)c1 [Compound 11, (2-Cyclopropyl-5,6,7,8-tetrahydro-benzo[4,5]thieno[2,3-d]pyrimidin-4-yl)-(3-trifluoromethyl-phenyl)-amine] | -3% | 3% | -4% | 4% | 1% | -1% | -14% | 4% | 4% | -7% | 20% | 8% | 2% | 6% | -5% | -1% | -3% | -5% | -6% | 204.8 °C | inhibition at 10 µM (Abl): 0%
4 | Nc1cccc(Nc2nc(C3CC3)nc3sc4c(c23)CCCC4)c1 [Compound 12, N-(2-Cyclopropyl-5,6,7,8-tetrahydro-benzo[4,5]thieno[2,3-d]pyrimidin-4-yl)-benzene-1,3-diamine] | -5% | -6% | -11% | 5% | -13% | -8% | 0% | 9% | 0% | 9% | 9% | 4% | -3% | 5% | -8% | -3% | 0% | 21% | 22% | 185.9 °C | inhibition at 10 µM (Abl): -13%
5 | O=[N+]([O-])c1cccc(Nc2nc(C3CC3)nc3sc4c(c23)CCCC4)c1 [Compound 13, (2-Cyclopropyl-5,6,7,8-tetrahydro-benzo[4,5]thieno[2,3-d]pyrimidin-4-yl)-(3-nitro-phenyl)-amine] | -9% | -4% | -14% | 26% | -2% | -12% | -18% | -9% | -6% | 12% | 9% | 1% | -7% | 3% | -18% | 0% | -6% | 11% | 9% | 211.7 °C | inhibition at 10 µM (Abl): -15%
